According to paper PMC9241976 (Chemical Science, 2022):

Tested on: MCF-7 cells
Experiment: Sulforhodamine B assay, cytostatic and cytotoxic activity
Assay type: cell-based, human
Settings: LC50 versus GI50 of the same compound

In the case of polytheonamide B [Compound 5], the “difference between GI50 and LC50” value is reported as 19 fold.
